Results taken from US10086039B2, “Lamin A, an activator of longevity/anti-aging SIRT1 protein” (THE UNIVERSITY OF HONG KONG, priority 2012, dated 2018).

Tests used:
[1] = molecular target: T1, FLAG-SIRT1 binding to lamin A (Homo sapiens, UniProt Q96EB6); assay: Co-immunoprecipitation of FLAG-SIRT1 and lamin A in HEK293 cells; type: cell-based; conditions: dose-dependent per FIG. 3D legend
T1 construct: expressed in transfected cells; host or cells: HEK293
T1 sequence (Q96EB6 1-747): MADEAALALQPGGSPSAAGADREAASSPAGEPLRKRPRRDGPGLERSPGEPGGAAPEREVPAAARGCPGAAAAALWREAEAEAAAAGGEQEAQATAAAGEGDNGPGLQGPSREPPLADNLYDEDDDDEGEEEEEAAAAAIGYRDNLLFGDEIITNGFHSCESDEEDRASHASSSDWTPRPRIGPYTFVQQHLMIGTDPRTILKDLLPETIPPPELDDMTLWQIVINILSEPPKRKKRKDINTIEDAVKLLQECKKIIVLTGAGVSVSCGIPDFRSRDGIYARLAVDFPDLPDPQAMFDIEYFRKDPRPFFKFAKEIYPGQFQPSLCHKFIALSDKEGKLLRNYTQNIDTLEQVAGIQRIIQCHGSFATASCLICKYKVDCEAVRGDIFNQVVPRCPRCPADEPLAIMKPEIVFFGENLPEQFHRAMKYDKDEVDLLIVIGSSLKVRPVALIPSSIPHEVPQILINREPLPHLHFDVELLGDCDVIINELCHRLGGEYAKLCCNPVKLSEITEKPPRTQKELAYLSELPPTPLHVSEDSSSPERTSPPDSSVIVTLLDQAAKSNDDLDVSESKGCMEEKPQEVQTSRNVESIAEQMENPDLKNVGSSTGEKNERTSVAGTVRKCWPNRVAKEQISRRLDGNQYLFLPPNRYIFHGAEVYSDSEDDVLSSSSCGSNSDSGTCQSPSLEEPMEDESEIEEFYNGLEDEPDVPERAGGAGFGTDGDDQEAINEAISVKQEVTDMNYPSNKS
T1 sequence (P02545 1-646 partner limits assumed): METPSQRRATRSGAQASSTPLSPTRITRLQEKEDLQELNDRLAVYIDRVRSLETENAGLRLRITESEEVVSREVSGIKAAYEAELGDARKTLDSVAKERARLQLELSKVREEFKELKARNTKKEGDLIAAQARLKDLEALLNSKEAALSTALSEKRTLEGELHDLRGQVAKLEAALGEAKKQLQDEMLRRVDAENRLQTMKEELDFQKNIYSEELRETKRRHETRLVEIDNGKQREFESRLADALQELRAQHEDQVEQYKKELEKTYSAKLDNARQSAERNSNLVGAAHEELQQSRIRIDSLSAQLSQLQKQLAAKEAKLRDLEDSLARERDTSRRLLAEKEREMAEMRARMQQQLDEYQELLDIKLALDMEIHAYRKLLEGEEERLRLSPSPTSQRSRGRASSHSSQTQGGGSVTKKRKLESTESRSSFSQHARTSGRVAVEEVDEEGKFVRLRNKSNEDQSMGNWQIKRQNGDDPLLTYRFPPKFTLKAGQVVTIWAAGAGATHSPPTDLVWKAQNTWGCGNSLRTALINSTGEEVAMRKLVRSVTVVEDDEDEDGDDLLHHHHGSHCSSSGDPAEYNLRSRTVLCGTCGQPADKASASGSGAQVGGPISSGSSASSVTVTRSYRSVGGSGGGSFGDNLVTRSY
Experimental: For co-immunoprecipitation, cells were lysed into pre-chilled RIPA buffer containing 300 mM or 500 mM NaCl and protease inhibitors. Primary antibodies or appropriate control IgGs were added to the lysate and incubated for 2 h on a rocking platform at 4° C. before Agarose beads were added and incubated O/N. The beads were washed twice with RIPA buffer, resuspended into Laemmli buffer and boiled, and protein suspension was collected by centrifugation and stored for further analysis.

Gadd45α and catalase = Gadd45α and catalase expression in Zmpste24−/− BMSCs (Western blotting); type: cell-based, mouse
Experimental: (FIG. 4A) Resveratrol (10 μM) increased colony-forming capacity of Zmpste24^−/− BMSCs. Colony-forming assay was performed on freshly isolated bone marrow cells in 10 cm dishes in the presence and absence of resveratrol. (FIG. 4B) Colony number counting. […] Data represent mean±SEM, n=4. *P<0.05, RSV Vs Vehicle. (FIG. 4C) Left, level of prelamin A pull down by anti SIRT1 immunoprecipitates in BMSCs treated or untreated with resveratrol (2 μM) was determined by Immunoblotting; right, level of acetylated Foxo3a in resveratrol was assessed by Immunoblotting. (FIG. 4D) Levels of catalase and Gadd45α in SIRT1 or scramble siRNA treated Zmpste24^−/− BMSCs in the presence or absence of resveratrol (10 μM) determined by Western blotting. […] (FIG. 4F) Quantification of (FIG. 4E). […] (FIG. 4gG Levels of H3K9ac and IR-induced-H2AX with or without ectopic SIRT1 in wild-type and Zmpste24 null BMSCs were assessed by Western blotting. (FIG. 4H) Ectopic SIRT1 increased the colony-forming capacity of Zmpste24^−/− and wild-type BMSCs. Colony-forming assay was performed on freshly isolated cells in 6 cm dishes. (FIG. 4I) Quantification of (FIG. 4H). Data represent mean±SEM, n=5. *P<0.05, SIRT1 Vs Mock.
Western blotting was performed as described previously (Liu et al., 2005). Relative band intensity was measured by IMAGE J® and normalized to corresponding wild-type or untreated controls as indicated.

AMPK = AMPK activation at low doses of resveratrol; type: cell-based; conditions: low doses (2-10 μM)
Experimental: It was shown that low doses of resveratrol (≤25 μM) activates AMPK in a SIRT1-dependent manner, while high doses (≥50 μM) activate AMPK independent of SIRT1 (Baur et al., 2006; Price et al., 2012; Sun et al., 2007). In the present invention, low doses (2-10 μM) of resveratrol were used and activation of AMPK was not observed; therefore, it is postulated that the beneficial effects of resveratrol on BMSCs are primarily attributable to the activation of SIRT1.

Oc1ccc(C=Cc2cc(O)cc(O)c2)cc1 [resveratrol]
binding of FLAG-SIRT1 to lamin A [1]: enhanced the binding | stimulating effect on expression of Gadd45α and catalase (Gadd45α and catalase; Zmpste24−/− BMSCs with SIRT1 knocked down): abolished the stimulating effect | expression of Gadd45α and catalase (Gadd45α and catalase; Zmpste24−/− BMSCs, resveratrol 10 μM): increased | activation of AMPK (AMPK): not observed
